Legend:
Experiment in all cases: relative viability (nuclei count vs DMSO), 5 days (fraction); higher = more cells survive
[1] = compound: CN(c1ncccc1CNc1nc(Nc2ccc3c(c2)CC(=O)N3)ncc1C(F)(F)F)S(C)(=O)=O + CC(=O)c1c(C)c2cnc(Nc3ccc(N4CCNCC4)cn3)nc2n(C2CCCC2)c1=O [Palbociclib] (partner 0.5 µM)
In short: (§1)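 After 5 days of treatment, lung cancer cells in 1536-well plates were fixed and stained in a single step (final 0.05% Triton X-100, 1% formaldehyde, 1 ug/ml Hoechst) and their nuclei counted on 4× images. Treatment had been applied by pin tool the day after seeding as one drug alone or as a fixed anchor-drug dose with five library-drug doses (not always all listed) in √10 steps. Relative viability is the nuclei count of treated wells divided by that of vehicle wells, and values are medians of duplicate plates.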

[2] = compound: CN(c1ncccc1CNc1nc(Nc2ccc3c(c2)CC(=O)N3)ncc1C(F)(F)F)S(C)(=O)=O + O=C(CCCCCCC(=O)Nc1ccccc1)NO [Vorinostat] (partner 1 µM)
In short: as §1

[3] = compound: CN(c1ncccc1CNc1nc(Nc2ccc3c(c2)CC(=O)N3)ncc1C(F)(F)F)S(C)(=O)=O + C[C@@H](Oc1cc(-c2cnn(C3CCNCC3)c2)cnc1N)c1c(Cl)ccc(F)c1Cl [Crizotinib] (partner 1 µM)
In short: as §1

[4] = compound: CN(c1ncccc1CNc1nc(Nc2ccc3c(c2)CC(=O)N3)ncc1C(F)(F)F)S(C)(=O)=O + NC(=O)Nc1cc(-c2cccc(F)c2)sc1C(=O)N[C@H]1CCCNC1 [AZD7762] (partner 0.2 µM)
In short: as §1

Row | Cell Line | relative viability ([1]; first compound 0.01 µM) | relative viability ([1]; first compound 0.03162 µM) | relative viability ([1]; first compound 0.1 µM) | relative viability ([1]; first compound 0.3162 µM) | relative viability ([1]; first compound 1 µM) | relative viability ([2]; first compound 0.01 µM) | relative viability ([2]; first compound 0.03162 µM) | relative viability ([2]; first compound 0.1 µM) | relative viability ([2]; first compound 0.3162 µM) | relative viability ([2]; first compound 1 µM) | relative viability ([3]; first compound 0.01 µM) | relative viability ([3]; first compound 0.03162 µM) | relative viability ([3]; first compound 0.1 µM) | relative viability ([3]; first compound 0.3162 µM) | relative viability ([3]; first compound 1 µM) | relative viability ([4]; first compound 0.01 µM) | relative viability ([4]; first compound 0.03162 µM) | relative viability ([4]; first compound 0.1 µM) | relative viability ([4]; first compound 0.3162 µM) | relative viability ([4]; first compound 1 µM)
1 | NCI-H1993 | 0.479 | 0.64 | 0.669 | 0.652 | 0.597 | 0.831 | 0.773 | 0.805 | 0.709 | 0.577 | 0.908 | 0.907 | 0.774 | 0.899 | 0.846 | 0.852 | 0.837 | 0.836 | 0.634 | 0.737
2 | NCI-H2085 | 0.444 | 0.467 | 0.443 | 0.462 | 0.401 | 0.816 | 0.837 | 0.761 | 0.734 | 0.691 | 0.94 | 0.799 | 0.742 | 0.778 | 0.648 | 1 | 1.02 | 1.02 | 1.07 | 1.03
3 | NCI-H2087 | 0.23 | 0.277 | 0.258 | 0.252 | 0.279 | 0.722 | 0.872 | 0.901 | 0.613 | 0.589 | 0.787 | 0.915 | 0.784 | 0.889 | 0.749 | 1.28 | 1.3 | 1.32 | 1.35 | 1.2
4 | NCI-H2126 | 0.358 | 0.351 | 0.308 | 0.352 | 0.306 | 0.76 | 0.845 | 0.642 | 0.831 | 0.701 | 1.03 | 1.09 | 0.975 | 0.942 | 0.916 | 1.03 | 1.08 | 0.961 | 0.904 | 0.902
5 | NCI-H2170 | 0.422 | 0.434 | 0.39 | 0.382 | 0.388 | 0.817 | 0.882 | 0.836 | 0.832 | 0.859 | 1.23 | 1.22 | 1.31 | – | 1.21 | 0.942 | 1.02 | 0.794 | 0.96 | 0.914
6 | NCI-H2347 | 0.434 | 0.389 | 0.426 | 0.354 | 0.377 | 0.584 | 0.615 | 0.527 | 0.54 | 0.413 | 0.698 | 0.692 | 0.61 | 0.661 | 0.658 | 0.818 | 0.654 | 0.782 | 0.733 | 0.685
7 | NCI-H2405 | 0.51 | 0.518 | 0.504 | 0.466 | 0.391 | 0.961 | 0.724 | 0.971 | 0.761 | 0.868 | 0.865 | 0.835 | 0.801 | 0.813 | 0.744 | 0.702 | 0.69 | 0.749 | 0.573 | 0.626
8 | NCI-H3122 | 0.204 | 0.188 | 0.155 | 0.202 | 0.149 | 1.03 | 0.963 | 1.04 | 1 | 1.06 | 0.283 | 0.289 | 0.283 | 0.278 | 0.241 | 1.04 | 1.09 | 0.981 | 0.978 | 1.03
9 | PC-3 [JPC-3] | 0.606 | – | 0.529 | 0.453 | 0.455 | 0.826 | – | 0.775 | 0.795 | 0.753 | 0.968 | 0.992 | 1.02 | 0.927 | 0.841 | 0.851 | – | 0.848 | 0.948 | 1.03
10 | PC-14 | 0.543 | 0.635 | 0.526 | 0.515 | 0.364 | 0.75 | 0.764 | 0.692 | 0.811 | 0.653 | 0.874 | 0.858 | 1.04 | 0.872 | 0.765 | 0.393 | 0.443 | 0.426 | 0.385 | 0.311
11 | RERF-LC-KJ | 1.17 | 1.15 | 1.09 | 1.03 | 1.02 | 0.643 | 0.78 | 0.692 | 0.728 | 0.603 | 0.841 | 0.823 | 0.85 | 0.779 | 0.86 | 0.89 | 1.08 | 1.03 | 1.04 | 1.07

From the supplement of paper PMC10307832
